From publication PMC7402526, “An in vitro quantitative systems pharmacology approach for deconvolving mechanisms of drug-induced, multilineage cytopenias” (PLoS Computational Biology, 2020)

What was measured:
[1] = system: multi-potent progenitors (MPPs); assay: MLTA, MPPs: concentration-response and QSP model fit; format: cell-based, human; conditions: Homo sapiens, 144 h
Description: (§1) A custom optimized cytokine cocktail was developed using commercially available cytokines (Peprotech, New Jersey) to facilitate simultaneous multi-lineage differentiation and self-renewal of freeze-thawed primary human bone marrow-derived CD34+ cells in SFEM II media (cells and media from StemCell Technologies, Vancouver). Cultures were carried out in ultra-low attachment 96-well plates (Corning, New York) with test article added on day 0 and cultured at 37°C, 85% relative humidity, and 5% CO2 for six days before interrogating drug impact via 17-parameter flow cytometry.
(§2) The flow cytometry panel used to define hematopoietic subsets was composed of CD34-PECy7, CD90-PECY5, CD38-AF488, CD371-PE, CD45Ra-BV421, CD14-BV605, CD42b-AF647, CD10-PEDazzle594, CD235a-PerCPCy5.5 (BioLegend, California), CD15-BUV395, CD41a-APCH7, CD71-BV786 (BD Biosciences, California), and DAPI for dead cell exclusion (ThermoFisher, California). In short, Day 6 cells were harvested, FcR-blocked (FcR binding inhibitor, ThermoFisher), surface-stained, then analyzed in a buffer containing TruCount Control Beads using a BD LSR Fortessa SORP fitted with a high-throughput sampler (BD Biosciences, California). Data was analyzed in Diva 6.0.2 and exported to CSV where after all cell data was transformed to cell per mL then normalized on a per-donor basis to untreated control wells to determine drug impact.
(§3) Donor material was collected and cultured as described above. The number of replicate donor samples per drug ranged from 2–7 and varied per drug (S1 Table). Drug treatment was added at time 0 and cells were maintained in culture for 6 days. Concentrations tested for each drug compound are contained in S1 Table. Concentrations were selected to span a range that is clinically useful. Following treatment, cell populations were measured using flow cytometry. We extracted cell counts from flow cytometry data, normalized to bead counts, and corrected for well volume.
(§4) Each well was normalized to the average of six vehicle control wells. For drugs that were tested across multiple runs of the assay, vehicle-normalized donor data were pooled, and we used the average of these pooled data for further modeling. Normalized data used as model inputs are included in S1 Table.
(§5) We implemented drug effects using an Emax model for the drug’s effect on each cell type. The 13 maximum effect parameters (EmaxT,C) are unitless and can vary between 0 and 2 and where a subscript, C, represents one of the previously described 13 cell types. We adapted a traditional Emax model using the equations below. We interpreted EmaxT values less than or equal to one as anti-proliferative, and EmaxT values greater than one as indicating a cell-killing mechanism in addition to anti-proliferation. The relationships for these effects are included in the model using the following equations. Eq 2 describes the drug anti-proliferative effect in the net proliferation rate for a given cell type. Eq 3 describes the cell-killing EmaxCK effect.
(§6) Towards the estimation of mechanistic parameters, we considered different formulations: (a) weighting the objective value to prioritize fitting dead cells and (b) using regularization methodology to encourage a parsimonious solution. We assessed the contributions of these formulations using mean-squared error and goodness of fit plots for drugs with known mechanisms. […] Further, we used L1 regularization to penalize parameters […] to help identify a parsimonious set of parameters to explain drug effects.

[2] = system: granulocyte-macrophage progenitor (GMPs); assay: MLTA, GMPs: concentration-response and QSP model fit; format: cell-based, human; conditions: Homo sapiens, 144 h, 6 days, normalized to vehicle control, read-out: GMPs normalized cell count
Description: as §1, §2, §3, §4, §5, §6

[3] = system: granulocyte progenitor (Gran-lin prog); assay: MLTA, GranP: concentration-response and QSP model fit; format: cell-based, human; conditions: Homo sapiens, 144 h
Description: as §1, §2, §3, §4, §5, §6

[4] = system: granulocytes (Gran-lin); assay: MLTA, Gran: concentration-response and QSP model fit; format: cell-based, human
Description: as §1, §2, §3, §4, §5, §6

[5] = system: MK cells (MK-lin); assay: MLTA, MK: concentration-response and QSP model fit; format: cell-based, human; conditions: Homo sapiens, 144 h
Description: as §1, §2, §3, §4, §5, §6

[6] = system: lymphocyte progenitors (LymP); assay: MLTA, LymP: concentration-response and QSP model fit; format: cell-based, human; conditions: Homo sapiens, Lymphocyte, 144 h
Description: as §1, §2, §3, §4, §5, §6

[7] = system: B cells (B-lin); assay: MLTA, B-lin: concentration-response and QSP model fit; format: cell-based, human; conditions: Homo sapiens, B-cell, 144 h
Description: as §1, §2, §3, §4, §5, §6

[8] = system: total viable cells (totalViableCells); assay: MLTA, total live cells concentration-response; format: cell-based; conditions: Homo sapiens, 144 h, 6 days, normalized to vehicle control, read-out: total_live normalized cell count
Description: as §1, §2, §3, §4

[9] = QSP model fit of 6-day MLTA data

CC(=O)O[C@H]1C(=O)[C@@]2(C)[C@H]([C@H](OC(=O)c3ccccc3)[C@]3(O)C[C@H](OC(=O)[C@H](O)[C@@H](NC(=O)c4ccccc4)c4ccccc4)C(C)=C1C3(C)C)[C@]1(OC(C)=O)CO[C@@H]1C[C@@H]2O [paclitaxel]
activity at 0.0002 µM ([1]; dose 0.2 nM, 6 days, normalized to vehicle control, read-out: MPPs normalized cell count): 78.7%
activity at 0.001 µM ([1]; dose 1 nM, 6 days, normalized to vehicle control, read-out: MPPs normalized cell count): 90%
activity at 0.005 µM ([1]; dose 5 nM, 6 days, normalized to vehicle control, read-out: MPPs normalized cell count): 71.3%
activity at 0.025 µM ([1]; dose 25 nM, 6 days, normalized to vehicle control, read-out: MPPs normalized cell count): 28%
activity at 0.1 µM ([1]; dose 100 nM, 6 days, normalized to vehicle control, read-out: MPPs normalized cell count): 2.32%
activity at 0.5 µM ([1]; dose 500 nM, 6 days, normalized to vehicle control, read-out: MPPs normalized cell count): 0.649%
activity at 2.5 µM ([1]; dose 2500 nM, 6 days, normalized to vehicle control, read-out: MPPs normalized cell count): 0.406%
Emax ([1]; parameter from QSP model fitting, read-out: Emax_drug_MPP): 0.18%
activity at 0.0002 µM ([2]; dose 0.2 nM): 126%
activity at 0.001 µM ([2]; dose 1 nM): 119%
activity at 0.005 µM ([2]; dose 5 nM): 109%
activity at 0.025 µM ([2]; dose 25 nM): 3.34%
activity at 0.1 µM ([2]; dose 100 nM): 0.101%
activity at 0.5 µM ([2]; dose 500 nM): 0.687%
activity at 2.5 µM ([2]; dose 2500 nM): 0.327%
activity at 0.0002 µM ([3]; dose 0.2 nM, 6 days, normalized to vehicle control, read-out: GranPs normalized cell count): 114%
activity at 0.001 µM ([3]; dose 1 nM, 6 days, normalized to vehicle control, read-out: GranPs normalized cell count): 112%
activity at 0.005 µM ([3]; dose 5 nM, 6 days, normalized to vehicle control, read-out: GranPs normalized cell count): 106%
activity at 0.025 µM ([3]; dose 25 nM, 6 days, normalized to vehicle control, read-out: GranPs normalized cell count): 0.213%
activity at 0.1 µM ([3]; dose 100 nM, 6 days, normalized to vehicle control, read-out: GranPs normalized cell count): 0.0154%
activity at 0.5 µM ([3]; dose 500 nM, 6 days, normalized to vehicle control, read-out: GranPs normalized cell count): 0.032%
activity at 2.5 µM ([3]; dose 2500 nM, 6 days, normalized to vehicle control, read-out: GranPs normalized cell count): 0.0153%
Emax ([3]; parameter from QSP model fitting, read-out: Emax_drug_GranP): 0.04%
EC50 ([4]; Homo sapiens, 144 h, QSP model fit of 6-day MLTA data): 15.8 nM
activity at 0.0002 µM ([4]; Homo sapiens, 144 h, dose 0.2 nM, 6 days, normalized to vehicle control, read-out: Gran normalized cell count): 104%
activity at 0.001 µM ([4]; Homo sapiens, 144 h, dose 1 nM, 6 days, normalized to vehicle control, read-out: Gran normalized cell count): 122%
activity at 0.005 µM ([4]; Homo sapiens, 144 h, dose 5 nM, 6 days, normalized to vehicle control, read-out: Gran normalized cell count): 92.8%
activity at 0.025 µM ([4]; Homo sapiens, 144 h, dose 25 nM, 6 days, normalized to vehicle control, read-out: Gran normalized cell count): 0.105%
activity at 0.1 µM ([4]; Homo sapiens, 144 h, dose 100 nM, 6 days, normalized to vehicle control, read-out: Gran normalized cell count): 0.0692%
activity at 0.5 µM ([4]; Homo sapiens, 144 h, dose 500 nM, 6 days, normalized to vehicle control, read-out: Gran normalized cell count): 0.0215%
activity at 2.5 µM ([4]; Homo sapiens, 144 h, dose 2500 nM, 6 days, normalized to vehicle control, read-out: Gran normalized cell count): 0.0279%
Emax ([4]; Homo sapiens, 144 h, parameter from QSP model fitting, read-out: Emax_drug_Gran): 236%
EmaxCK,Gran ([4]; cell-killing component, max(0, EmaxT-1)): 1.360 day⁻¹
EC50 [5, 9]: 51.7 nM
activity at 0.0002 µM ([5]; dose 0.2 nM, 6 days, normalized to vehicle control, read-out: MK normalized cell count): 108%
activity at 0.001 µM ([5]; dose 1 nM, 6 days, normalized to vehicle control, read-out: MK normalized cell count): 110%
activity at 0.005 µM ([5]; dose 5 nM, 6 days, normalized to vehicle control, read-out: MK normalized cell count): 111%
activity at 0.025 µM ([5]; dose 25 nM, 6 days, normalized to vehicle control, read-out: MK normalized cell count): 9.64%
activity at 0.1 µM ([5]; dose 100 nM, 6 days, normalized to vehicle control, read-out: MK normalized cell count): 0.962%
activity at 0.5 µM ([5]; dose 500 nM, 6 days, normalized to vehicle control, read-out: MK normalized cell count): 0.754%
activity at 2.5 µM ([5]; dose 2500 nM, 6 days, normalized to vehicle control, read-out: MK normalized cell count): 0.792%
Emax ([5]; parameter from QSP model fitting, read-out: Emax_drug_MK): 25.9%
activity at 0.0002 µM ([6]; dose 0.2 nM, 6 days, normalized to vehicle control, read-out: LymP normalized cell count): 122%
activity at 0.001 µM ([6]; dose 1 nM, 6 days, normalized to vehicle control, read-out: LymP normalized cell count): 143%
activity at 0.005 µM ([6]; dose 5 nM, 6 days, normalized to vehicle control, read-out: LymP normalized cell count): 61.3%
activity at 0.025 µM ([6]; dose 25 nM, 6 days, normalized to vehicle control, read-out: LymP normalized cell count): 9.53%
activity at 0.1 µM ([6]; dose 100 nM, 6 days, normalized to vehicle control, read-out: LymP normalized cell count): 5.4%
activity at 0.5 µM ([6]; dose 500 nM, 6 days, normalized to vehicle control, read-out: LymP normalized cell count): 7.34%
activity at 2.5 µM ([6]; dose 2500 nM, 6 days, normalized to vehicle control, read-out: LymP normalized cell count): 9.6%
Emax ([6]; parameter from QSP model fitting, read-out: Emax_drug_LymP): 0.16%
EC50 [7, 9]: 36.7 nM
activity at 0.0002 µM ([7]; dose 0.2 nM, 6 days, normalized to vehicle control, read-out: B-lin normalized cell count): 102%
activity at 0.001 µM ([7]; dose 1 nM, 6 days, normalized to vehicle control, read-out: B-lin normalized cell count): 109%
activity at 0.005 µM ([7]; dose 5 nM, 6 days, normalized to vehicle control, read-out: B-lin normalized cell count): 75.9%
activity at 0.025 µM ([7]; dose 25 nM, 6 days, normalized to vehicle control, read-out: B-lin normalized cell count): 1.34%
activity at 0.1 µM ([7]; dose 100 nM, 6 days, normalized to vehicle control, read-out: B-lin normalized cell count): 0.231%
activity at 0.5 µM ([7]; dose 500 nM, 6 days, normalized to vehicle control, read-out: B-lin normalized cell count): 0.372%
activity at 2.5 µM ([7]; dose 2500 nM, 6 days, normalized to vehicle control, read-out: B-lin normalized cell count): 0.335%
Emax ([7]; parameter from QSP model fitting, read-out: Emax_drug_B): 91.4%
viability at 0.0002 µM ([8]; dose 0.2 nM): 102%
viability at 0.001 µM ([8]; dose 1 nM): 110%
viability at 0.005 µM ([8]; dose 5 nM): 75.9%
viability at 0.025 µM ([8]; dose 25 nM): 1.22%
viability at 0.1 µM ([8]; dose 100 nM): 0.201%
viability at 0.5 µM ([8]; dose 500 nM): 0.291%
viability at 2.5 µM ([8]; dose 2500 nM): 0.232%
